How the values were obtained:
[1] = Pharmacokinetic (PK) study in Sprague-Dawley rats, plasma, oral (gavage) dose; assay type: in vivo; conditions: rat; for AUC(0-t) / Cmax / Tmax: plasma, single oral (gavage) dose, fasted male Sprague Dawley rats, target dose 30 mg/kg (paraxanthine-d6 31 mg/kg, adjusted for MW)
Experimental: Two groups of fasted male Sprague-Dawley rats (12 animals per group) may be administered an oral single dose of paraxanthine in deionized water (Group 1) or paraxanthine-d6 (a compound of Formula (Ia)), in deionized water (Group 2) at a target dose level of […]. Serial blood samples may be collected from three animals per group per timepoint prior to dosing and at 0.25, 0.5, 1, 2, 3 4, 6, 8, 10, 12, and 14-hours post dose. No more than three blood samples may be collected from individual animals with the last sample being a terminal blood draw. Terminal brain samples may be collected from three animals per group at 1, 4, 8, and 14-hours post dose. Blood samples may be collected into tubes containing sodium heparin, and then processed for plasma and stored frozen until bioanalysis. Brain samples may be collected following the terminal blood collection, rinsed with saline, and stored frozen until bioanalysis. Plasma and brain samples may be analyzed for paraxanthine and paraxanthine-d6 (a compound of Formula (Ia)) concentration using a liquid chromatography-tandem mass spectrometry (LC-MS/MS) method. Non-compartmental pharmacokinetic parameter estimates may be calculated from the mean plasma concentration-time data. A pharmacokinetic (PK) study was conducted in Sprague-Dawley rats. Mean pharmacokinetic parameter estimates in plasma for paraxanthine and paraxanthine-d6 (a compound of Formula (Ia)) following an oral dose of paraxanthine or D6-paraxanthine to male Sprague-Dawley rats are reported in Table 1. […] The dose level for paraxanthine-d6 (a compound of Formula (Ia)) was adjusted to account for molecular weight differences between paraxanthine (MW=180.17) and paraxanthine-d6 (MW=186.2).

[2] = Human pharmacokinetic (PK) crossover study of caffeine versus d9-caffeine; plasma metabolites paraxanthine / paraxanthine-d6; assay type: in vivo; conditions: for elimination ½ life: estimated, over both dose levels (0.26 and 1.29 mmol caffeine or d9-caffeine), as metabolite in human plasma; for AUC(0-t) / Cmax / Tmax / half-life: human, plasma, plasma metabolite, arithmetic mean, healthy adults
Experimental: A double-blind, randomized, two-part, two-period crossover study was conducted to evaluate the pharmacokinetics of caffeine versus d9-caffeine (depicted as compound 14 within U.S. Pat. No. 10,582,716, the disclosure of which is incorporated herein by reference) and their respective metabolites at two dose levels in 20 healthy adult volunteers. A single dose of 50 mg (0.26 mmol) or 250 mg (1.29 mmol) of caffeine, or a molar-equivalent dose of d9-caffeine, were administered in aqueous solution with blood samples collected for up to 48 hours post-dose. Plasma concentrations of parent and metabolites were analyzed using validated LC-MS/MS methods. The pharmacokinetic parameters of the primary caffeine metabolite, paraxanthine, and its respective counterpart, paraxanthine-d6, were analyzed and are reported in Table 2. The elimination ½ life of paraxanthine was estimated at 5-8 hours, consistent with published literature. The elimination ½ life of paraxathine-d6 was estimated at >18-22 hours, a […] difference. […] The data from this study supports the administration of paraxanthine-d6 once daily to humans to prevent or treat various diseases and conditions.

[3] = single dose 0.26 mmol caffeine (paraxanthine) or 0.26 mmol d9-caffeine (paraxanthine-d6)
[4] = single dose 1.29 mmol caffeine (paraxanthine) or 1.29 mmol d9-caffeine (paraxanthine-d6)

Compound	AUC(0-t) [1]	Cmax [1]	Tmax [1]	elimination ½ life [2]	AUC(0-t) [2, 3]	Cmax [2, 3]	Tmax [2, 3]	half-life [2, 3]	AUC(0-t) [2, 4]	Cmax [2, 4]	Tmax [2, 4]	half-life [2, 4]	elimination ½ life of paraxanthine-d6 compared with paraxanthine ([1]; in vivo)
Cn1c(=O)[nH]c2ncn(C)c2c1=O [Paraxanthine, paraxanthine]	170 µg·h/mL	38900 ng/mL	0.5 h	5 to 8 h	31.5 µM·h	1620 nM	8.22 h	7.58 h	122 µM·h	7170 nM	7.5 h	5.74 h	
[2H]C([2H])([2H])n1c(=O)[nH]c2ncn(C([2H])([2H])[2H])c2c1=O [Paraxanthine-d6, paraxanthine-d6]	196 µg·h/mL	42400 ng/mL	0.5 h	18 to 22 h	110 µM·h	2900 nM	21.1 h	> 18 h	110 µM·h	2900 nM	21.1 h	> 22 h	no difference
